Assay results published in patent US9458192B1, “Covalent granzyme B inhibitors” (viDA Therapeutics Inc., priority 2014, dated 2016).

Target: GzmB (Homo sapiens, UniProt P10144)
Assay: Inhibition of fibronectin cleavage by GzmB
Format: biochemical
Details: 20 nM granzyme B, Hilyte Fluor 488 labeled fibronectin, 30° C.
Method: Black, 96 well high-binding assay plates (Griener Bio-one) were treated overnight at 4° C. with 40 uL of 8 ug/mL Hilyte Fluor 488 labeled Fibronectin (Cytoskeleton, Inc). After fibronectin coating, plates were washed 3 times in buffer (20 mM Tris-HCl, pH 7.4, 20 mM NaCl) then once with granzyme B assay buffer (50 mM HEPES, pH 7.5, 0.1% CHAPS). After washing, 50 uL of granzyme B assay buffer was added to each fibronectin-coated well. In a separate non-binding 96 well assay plate 5 uL of 20× inhibitor serial dilution stocks were added to 45 uL of 2.22×GzmB mix to establish inhibition (enzyme/inhibitor mixes were all prepared in granzyme B assay buffer and were incubated first at room temperature for 20 minutes, then at 30° C. for another 10 minutes). After incubation, 50 uL of this 2× enzyme/inhibitor mix was added to the corresponding coated well to initiate fibronectin cleavage (20 nM final granzyme B concentration, 8-point inhibitor dilution series starting at 50 uM). The assay was conducted at 30° C. in the TECAN plate reader (TECAN INFINITE® M1000 Pro), which was programmed to monitor the kinetic fluorescence polarization signal (filter set Ex/Em 470 nm/527 nm) with readings taken every minute, for 1 hour. Proteolytic activity was evaluated as the rate of fluorescence enhancement in the parallel emission over the linear range of the reaction. % Inhibition values were calculated from assay controls and the resulting date is shown in Table 2.

GzmB, sequence (P10144 21-247): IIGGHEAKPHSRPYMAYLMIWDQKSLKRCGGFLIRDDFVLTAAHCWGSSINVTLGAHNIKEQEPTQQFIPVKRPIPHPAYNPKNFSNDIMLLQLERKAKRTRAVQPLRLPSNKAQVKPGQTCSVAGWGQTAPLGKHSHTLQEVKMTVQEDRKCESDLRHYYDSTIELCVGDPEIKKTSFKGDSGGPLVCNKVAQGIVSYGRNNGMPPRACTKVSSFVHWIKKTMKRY

CC[C@H](C)[C@H](NC(=O)CCC(=O)O)C(=O)NCC(=O)N1c2ccccc2C[C@H]1C(=O)NC(C=O)CC(=O)O (stereo in doubt) [Compound C1, (S)-3-{[1-{2-[(2S,3S)-2-(3-carboxypropanamido)-3-methylpentanamido]acetyl}-2,3-dihydro-1H-indol-2-yl]formamido}-4-oxobutanoic acid]
inhibition at 0.62 µM (0.62 uM inhibitor, read-out: Percent Inhibition at Inhibitor Concentration 0.62 uM): 60% | inhibition at 5.56 µM (5.56 uM inhibitor, read-out: Percent Inhibition at Inhibitor Concentration 5.56 uM): 87% | inhibition at 50 µM (50 uM inhibitor, read-out: Percent Inhibition at Inhibitor Concentration 50 uM): 95%
